Columns and labels:
[1] = Fluorescence spectroscopy of the sensors (excitation and emission); assay type: physicochemical
Description: Fluorescence spectroscopy was performed on a bench top Perkin-Elmer Enspire Multimode Plate Reader. […] 5 replicates of each sensor-metal or sensor-complex solution were used. […] Fluorescence responses to analytes were determined using integrated emission intensity, and for each sensor a control well containing no analyte was included to normalise the response for analysis.
The sensors were tested using the procedure described in Example 4, and the obtained data was analysed using LDA. […] Sensors S1-S9 were used in subsequent experiments.

| SMILES | excitation wavelength (maximum excitation wavelength of the sensor) [1] [nm] | melting point [°C] |
| --- | --- | --- |
| O=C1c2ccccc2C2(c3ccc(O)cc3Oc3cc(O)ccc32)N1NC(=S)S [S1] | 480 | – |
| Cc1cc(=O)oc2c(CN(CC(=O)O)CC(=O)O)c(O)ccc12 [S5] | 380 | – |
| S=C(S)n1ncc2ccccc21 [formula X, 1H-indazole-1-carbodithioic acid] | – | 220 |
| S=C(S)C1=C(NCc2ccccc2)CCC1 [formula XIV, 2-(benzylamino)cyclopent-1-enecarbodithioic acid] | – | 100 |
| O=[N+]([O-])c1ccc2c(/N=N/c3ccc4ccccc4c3O)c(O)cc(S(=O)(=O)[O-])c2c1.[Na+] [S8] | 280 | – |
| CCN(CC)c1ccc2c(c1)Oc1cc(N(CC)CC)ccc1C21c2ccccc2C(=O)N1OCc1cn(Cc2ccccc2)nn1 [S7] | 445 | – |
| O=S(=O)([O-])c1cc(O)c(N=Nc2c(O)ccc3ccccc23)c2ccccc12.[Na+] [S9] | 280 | – |

Reference: patent publication US20240019450A1, “FLUORESCENT SENSORS” (THE UNIVERSITY OF SYDNEY, priority 2020, published 2024)
